# Like-named read-outs stand apart in the source and are kept apart here.
# Assays:
# CDK2/Cyclin E1 [1] = biological target: T1, CDK2/Cyclin E1 (Homo sapiens, UniProt P24941); assay: Caliper Assay (LabChip EZ Reader mobility shift assay), inhibition of CDK2/Cyclin E1 activity; type: biochemical; settings: 2.5 nM CDK2/Cyclin E1(14-475), 100 μM ATP, 30 min preincubation; read-out: Caliper Assay (CDK2/CCNE1): IC50
# T1 construct: purchased 14-475
# In short: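 Compounds were preincubated 30 min with CDK2/Cyclin E1(14-475), then run for 100 min with 2.5 nM enzyme, 100 μM ATP and 1.5 μM 5-FAM-QSPKKG peptide in HEPES pH 7.5 (final). Reactions were EDTA-stopped and substrate-to-product conversion read by mobility shift. IC50 came from a four-parameter fit.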
# CDK2/Cyclin E1 [2] = biological target: T1, CDK2/Cyclin E1; assay: ADPGLO (CDK2/E1-37 C), ADP-Glo Luminescent Kinase Assay; type: biochemical; settings: 0.18 nM CDK2/Cyclin E1, 100 μM ATP, Histone H1, 37° C.
# Procedure: Inhibition of CDK2/Cyclin E1 activity by the presence of small molecules was evaluated using ADP-Glo Luminescent Kinase Assay (Promega). Activated CDK2/Cyclin E1 was incubated with its substrate Histone H1 (SignalChem H10-54N) in the kinase reaction buffer (100 μM ATP, 50 mM HEPES pH 7.5, 10 mM MgCl2, 1 mM EDTA, 2 mM DTT, 0.01% Brij35, 0.5 mg/mL BSA). Luminescence was recorded with an Envision plate reader (PerkinElmer).
# Dose titrations of inhibitors in 100% DMSO were combined with 0.36 nM CDK2/Cyclin E1 in reaction buffer. The mixtures were incubated for 60 minutes at 37° C. before the addition of ATP and Histone H1 substrate to initiate the kinase reaction. The final conditions were 0.18 nM CDK2/Cyclin E1, 100 μM ATP, and 1.5 μM Histone H1. The reactions were incubated at 37° C. for 90 minutes before being stopped with the addition of ADP-Glo reagent. This mixture was incubated at room temperature for 60 minutes before Kinase Detection Solution is added to generate luminescence. The stopped reactions were analyzed on an Envision plate reader. The conversion ratios were normalized to yield % activity, plotted against compound concentration, and fit to a four-parameter equation to determine the IC50 for each compound.
# Kuramochi cells = assay: IncuCyte Kuramochi Assay (cell proliferation); type: cell-based; settings: Kuramochi cells labeled with mApple-H2B, cell count, read-out: IncuCyte - Kuramochi RB-WT: IC50
# In short: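 GI50 came from dose-response fits of cell-count fold change between 0 and 72 h, normalized to DMSO controls. Counts were fluorescent nuclei from live-cell images over a 10-point, ½ log series starting at 20 μM.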
Structure (SMILES),IC50 (CDK2/Cyclin E1 [1]) [µM],IC50 (CDK2/Cyclin E1 [2]) [µM],IC50 (Kuramochi cells; 72 h) [µM],IC50 (Kuramochi cells; 72 hours) [µM]
COc1ccc(COc2cncc(C(=O)N3CC(c4nnc(C(F)(F)c5ccc(Cl)c(Cl)c5)o4)C4(C3)CN(C(=O)[C@H]3CC3(F)F)C4)n2)cc1 (stereo partly shown) [I-125],> 100,> 100,> 10,–
COc1cc(C(=O)N2CC(c3nnc(C(F)(F)c4ccc(Cl)c(Cl)c4)o3)C3(C2)CN(C(=O)[C@H]2CC2(F)F)C3)[nH]n1 (stereo partly shown) [I-138],> 10,> 100,> 10,–
CC(c1nc(C2CN(C(=O)c3cnn(Cc4cccc(C(=O)O)c4)c3)CC23CN(C(=O)[C@H]2CC2(C)C)C3)no1)n1ccc(C2CCCC2)n1 (stereo partly shown) [I-131],≤ 0.01,0.5 to 5,> 10,–
CC(c1nc(C2CN(C(=O)c3cnn(Cc4ccc(C(=O)O)nc4)c3)CC23CN(C(=O)[C@H]2CC2(C)C)C3)no1)n1ccc(C2CCCC2)n1 (stereo partly shown) [I-126],0.1 to 1,> 10,> 10,–
"CC(c1nc(C2CN(C(=O)c3cncs3)CC23CN(C(=O)[C@H]2CC2(C)C)C3)no1)n1ccc(C2CCCC2)n1 (single isomer, unassigned) [I-36 3rd]",0.01 to 0.1,≤ 0.5,–,> 10
O=C(c1cc(C(F)(F)F)n[nH]1)N1CC(c2nnc(C(F)(F)c3ccc(Cl)c(Cl)c3)o2)C2(CN(CC3CCCO3)C2)C1 (stereo not shown) [I-142],> 100,> 10,> 10,–
CC1(C)C[C@@H]1C(=O)N1CC2(CN(C(=O)c3cncs3)CC2c2nnc(C(F)(F)c3ccc(Cl)c(Cl)c3)o2)C1 (stereo partly shown) [I-32],0.1 to 1,0.5 to 5,> 10,–
O=C(c1cn[nH]c1)N1CC(c2nnc(C(F)(F)c3ccc(Cl)c(Cl)c3)o2)C2(CN(CC3CCCO3)C2)C1 (stereo not shown) [I-143],> 100,> 10,> 10,–
"CC(c1nc(C2CN(C(=O)c3cnn(Cc4cc(F)c(C(=O)O)c(F)c4)c3)CC23CN(C(=O)[C@H]2CC2(C)C)C3)no1)n1ccc(C2CCCC2)n1 (stereo partly drawn) [I-130, 4-((4-(8-(5-(1-(3-cyclopentyl-1H-pyrazol-1-yl)ethyl)-1,2,4-oxadiazol-3-yl)-2-((S)-2,2-dimethylcyclopropane-1-carbonyl)-2,6-diazaspiro[3.4]octane-6-carbonyl)-1H-pyrazol-1-yl)methyl)-2,6-difluorobenzoic acid]",0.01 to 0.1,0.5 to 5,> 10,–
"CC(c1nc(C2CN(C(=O)c3cnn(Cc4ccc(C(F)(F)F)cc4)c3)CC23CN(C(=O)C2(C(F)(F)F)CC2)C3)no1)n1ccc(C2(C(F)(F)F)CC2)n1 (stereo not shown) [I-223, (1-(4-(trifluoromethyl)benzyl)-1H-pyrazol-4-yl)(2-(1-(trifluoromethyl)cyclopropane-1-carbonyl)-8-(5-(1-(3-(1-(trifluoromethyl)cyclopropyl)-1H-pyrazol-1-yl)ethyl)-1,2,4-oxadiazol-3-yl)-2,6-diazaspiro[3.4]octan-6-yl)methanone]",–,> 10,5 to 10,–
"CC(c1nc(C2CN(C(=O)c3cnn(Cc4nnn[nH]4)c3)CC23CN(C(=O)[C@H]2CC2(C)C)C3)no1)n1ccc(C2CCCC2)n1 (stereo partly drawn) [I-114, (1-((1H-tetrazol-5-yl)methyl)-1H-pyrazol-4-yl)(8-(5-(1-(3-cyclopentyl-1H-pyrazol-1-yl)ethyl)-1,2,4-oxadiazol-3-yl)-2-((S)-2,2-dimethylcyclopropane-1-carbonyl)-2,6-diazaspiro[3.4]octan-6-yl)methanone]",–,0.5 to 5,–,> 10
O=C(c1cnn(Cc2cccc3c2CCNC3)c1)N1CC(c2nnc(C(F)(F)c3ccc(Cl)c(Cl)c3)o2)C2(C1)CN(C(=O)C1(C(F)(F)F)CC1)C2 (stereo not shown) [I-106],–,> 10,5 to 10,–
CC(c1nc(C2CN(C(=O)c3cnn(Cc4ccccc4C(=O)O)c3)CC23CN(C(=O)[C@H]2CC2(C)C)C3)no1)n1ccc(C2CCCC2)n1 (stereo partly shown) [I-123],–,≤ 0.5,> 10,–
CC(c1nc(C2CN(C(=O)c3cnc(O)cn3)CC23CN(C(=O)C2(C(F)(F)F)CC2)C3)no1)n1ccc(C2CCOCC2)n1 (stereo not shown) [I-115],–,0.5 to 5,5 to 10,–
"CC(c1nc(C2CN(C(=O)c3cnn(Cc4ccccc4C(=O)O)c3)CC23CN(C(=O)C2(C(F)(F)F)CC2)C3)no1)n1ccc(C2(C(F)(F)F)CC2)n1 (stereo not shown) [I-220, 2-((4-(2-(1-(trifluoromethyl)cyclopropane-1-carbonyl)-8-(5-(1-(3-(1-(trifluoromethyl)cyclopropyl)-1H-pyrazol-1-yl)ethyl)-1,2,4-oxadiazol-3-yl)-2,6-diazaspiro[3.4]octane-6-carbonyl)-1H-pyrazol-1-yl)methyl)benzoic acid]",–,0.5 to 5,> 10,–
CC(c1nc(C2CN(C(=O)c3cnn(Cc4ccc(C(O)C(F)(F)F)cc4)c3)CC23CN(C(=O)[C@H]2CC2(C)C)C3)no1)n1ccc(C2CCCC2)n1 (stereo partly shown) [I-113],–,0.5 to 5,0.5 to 5,–
"O=C(c1cnn(Cc2ccc(C(F)(F)F)cc2)c1)N1CC(c2nnc(C(C(=O)N3CCC(c4nccs4)CC3)c3ccc(C4CCOCC4)cc3)o2)C2(C1)CN(C(=O)C1(C(F)(F)F)CC1)C2 (stereo not shown) [I-216, 2-(4-(tetrahydro-2H-pyran-4-yl)phenyl)-1-(4-(thiazol-2-yl)piperidin-1-yl)-2-(5-(6-(1-(4-(trifluoromethyl)benzyl)-1H-pyrazole-4-carbonyl)-2-(1-(trifluoromethyl)cyclopropane-1-carbonyl)-2,6-diazaspiro[3.4]octan-8-yl)-1,3,4-oxadiazol-2-yl)ethan-1-one]",–,≤ 0.5,0.5 to 5,–
CC(c1nc(C2CN(C(=O)c3cnn(Cc4ccc(OC(C)(C)C(=O)O)cc4)c3)CC23CN(C(=O)[C@H]2CC2(C)C)C3)no1)n1ccc(C2CCCC2)n1 (stereo partly shown) [I-124],–,0.5 to 5,> 10,–
"CC(c1nc(C2CN(C(=O)c3cnn(Cc4ccc(C(=O)O)c(O)c4)c3)CC23CN(C(=O)[C@H]2CC2(C)C)C3)no1)n1ccc(C2CCCC2)n1 (stereo partly drawn) [I-122, 4-((4-(8-(5-(1-(3-cyclopentyl-1H-pyrazol-1-yl)ethyl)-1,2,4-oxadiazol-3-yl)-2-((S)-2,2-dimethylcyclopropane-1-carbonyl)-2,6-diazaspiro[3.4]octane-6-carbonyl)-1H-pyrazol-1-yl)methyl)-2-hydroxybenzoic acid]",–,5 to 10,> 10,–
CC(c1nc(C2CN(C(=O)c3cnn(Cc4ccc(C#N)cc4C(=O)O)c3)CC23CN(C(=O)C2(C(F)(F)F)CC2)C3)no1)n1ccc(C2(C(F)(F)F)CC2)n1 (stereo not shown) [I-214],–,0.5 to 5,> 10,–
COC(=O)c1cc(C#N)ccc1Cn1cc(C(=O)N2CC(c3noc(C(C)n4ccc(C5(C(F)(F)F)CC5)n4)n3)C3(C2)CN(C(=O)C2(C(F)(F)F)CC2)C3)cn1 (stereo not shown) [I-215],–,0.5 to 5,5 to 10,–
COC(=O)c1ccc(Cn2cc(C(=O)N3CC(c4noc(C(C)n5ccc(C6CCCC6)n5)n4)C4(C3)CN(C(=O)[C@H]3CC3(C)C)C4)cn2)cn1 (stereo partly shown) [I-117],–,0.5 to 5,> 10,–
O=C(c1cnc(O)cn1)N1CC(c2nnc(C(C(=O)N3CCC(c4nccs4)CC3)c3ccc(C4CCOCC4)cc3)o2)C2(C1)CN(C(=O)C1(C(F)(F)F)CC1)C2 (stereo not shown) [I-209],–,> 10,≤ 0.5,–
"COC(=O)c1cc(C(F)(F)F)ccc1Cn1cc(C(=O)N2CC(c3noc(C(C)n4ccc(C5(C(F)(F)F)CC5)n4)n3)C3(C2)CN(C(=O)C2(C(F)(F)F)CC2)C3)cn1 (stereo not shown) [I-219, methyl 5-(trifluoromethyl)-2-((4-(2-(1-(trifluoromethyl)cyclopropane-1-carbonyl)-8-(5-(1-(3-(1-(trifluoromethyl)cyclopropyl)-1H-pyrazol-1-yl)ethyl)-1,2,4-oxadiazol-3-yl)-2,6-diazaspiro[3.4]octane-6-carbonyl)-1H-pyrazol-1-yl)methyl)benzoate]",–,> 10,> 10,–
"Cc1nc(C(=O)N2C[C@H](c3noc(C(C)n4ccc(C5CCOCC5)n4)n3)C3(C2)CN(C(=O)C2(C(F)(F)F)CC2)C3)cnc1O (stereo partly drawn) [I-224, (5-hydroxy-6-methylpyrazin-2-yl)((8R)-8-(5-(1-(3-(tetrahydro-2H-pyran-4-yl)-1H-pyrazol-1-yl)ethyl)-1,2,4-oxadiazol-3-yl)-2-(1-(trifluoromethyl)cyclopropanecarbonyl)-2,6-diazaspiro[3.4]octan-6-yl)methanone]",–,> 10,> 10,–
"CC(c1nc(C2CN(C(=O)c3cnn(CC#N)c3)CC23CN(C(=O)[C@H]2CC2(C)C)C3)no1)n1ccc(C2CCCC2)n1 (stereo partly drawn) [I-119, 2-(4-(8-(5-(1-(3-cyclopentyl-1H-pyrazol-1-yl)ethyl)-1,2,4-oxadiazol-3-yl)-2-((S)-2,2-dimethylcyclopropane-1-carbonyl)-2,6-diazaspiro[3.4]octane-6-carbonyl)-1H-pyrazol-1-yl)acetonitrile]",–,0.5 to 5,> 10,–

# Reference: patent US20260151375A1, “CDK2 INHIBITORS AND METHODS OF USING THE SAME” (Cedilla Therapeutics, Inc., priority 2022, published 2026)
